Laboratory results as given in ChEMBL document CHEMBL5543110, “Engineering of a Biologically Active Glycosylated Glucagon-Like Peptide-1 Analogue” (J Med Chem, 2024).
Calls of active or inactive are those of the source. No cut-off for these calls is given here.

Tests used:
Mus musculus [1] = assay: Hypoglycemic activity in six hrs fasted C57BL6/J mouse assessed as improvement in glucose disposal at 30 nmol/kg, sc pre-administered with compound for 60 mins followed by glucose addition and measured upto 120 mins; type: functional, organism-based; conditions: time <= 180.0 min
Mus musculus [2] = assay: Hypoglycemic activity in six hrs fasted C57BL6/J mouse assessed as reduction in blood glucose level at 30 nmol/kg, sc measured upto 120 mins post injection by glucometer analysis; type: functional, organism-based
[3] = biological target: Glucagon-like peptide 1 receptor (Homo sapiens) (UniProt P43220); assay: Agonist activity human GLP-1R stably expressed in HEK293-A cells assessed as […] in cAMP accumulation incubated for 30 mins by fluorescence resonance energy transfer analysis; type: functional, cell-based; conditions: filed as agonist
Glucagon-like peptide 1 receptor (Homo sapiens), sequence (P43220 whole entry): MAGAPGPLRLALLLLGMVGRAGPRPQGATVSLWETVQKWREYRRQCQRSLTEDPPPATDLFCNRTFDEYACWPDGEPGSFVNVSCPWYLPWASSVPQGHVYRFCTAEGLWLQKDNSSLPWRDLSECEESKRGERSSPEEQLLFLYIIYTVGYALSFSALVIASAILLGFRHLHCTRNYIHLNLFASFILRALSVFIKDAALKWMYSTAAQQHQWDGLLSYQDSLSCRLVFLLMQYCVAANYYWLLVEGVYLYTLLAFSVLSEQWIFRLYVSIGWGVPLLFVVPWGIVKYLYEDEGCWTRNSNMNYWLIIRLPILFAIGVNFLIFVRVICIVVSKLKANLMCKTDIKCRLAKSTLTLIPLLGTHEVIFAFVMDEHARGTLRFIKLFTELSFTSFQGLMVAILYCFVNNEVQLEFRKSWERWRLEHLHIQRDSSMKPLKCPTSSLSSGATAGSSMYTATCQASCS

Row | Activity [3] | Molecule | Activity (Mus musculus [1]) | Activity (Mus musculus [2])
1 | Active | CC[C@H](C)[C@H](NC(=O)[C@H](Cc1ccccc1)NC(=O)[C@H](CCC(=O)O)NC(=O)[C@H](CC(=O)N[C@@H]1O[C@H](CO)[C@@H](O[C@@H]2O[C@H](CO)[C@@H](O[C@@H]3O[C@H](CO[C@H]4O[C@H](CO)[C@@H](O)[C@H](O)[C@@H]4O[C@@H]4O[C@H](CO)[C@@H](O[C@@H]5O[C@H](CO[C@]6(C(=O)O)C[C@H](O)[C@@H](NC(C)=O)[C@H]([C@H](O)[C@H](O)CO)O6)[C@H](O)[C@H](O)[C@H]5O)[C@H](O)[C@H]4NC(C)=O)[C@@H](O)[C@H](O[C@@H]4O[C@H](CO)[C@H](O)[C@@H](O)[C@H]4O[C@@H]4O[C@H](CO)[C@@H](O[C@@H]5O[C@H](CO[C@]6(C(=O)O)C[C@H](O)[C@@H](NC(C)=O)[C@H]([C@H](O)[C@H](O)CO)O6)[C@H](O)[C@H](O)[C@H]5O)[C@H](O)[C@H]4NC(C)=O)[C@@H]3O)[C@H](O)[C@H]2NC(C)=O)[C@H](O)[C@H]1NC(C)=O)NC(=O)[C@H](C)NC(=O)[C@H](C)NC(=O)[C@H](CCC(N)=O)NC(=O)CNC(=O)[C@H](CCC(=O)O)NC(=O)[C@H](CC(C)C)NC(=O)[C@H](Cc1ccc(O)cc1)NC(=O)[C@H](CO)NC(=O)[C@H](CO)NC(=O)[C@@H](NC(=O)[C@H](CC(=O)O)NC(=O)[C@H](CO)NC(=O)[C@@H](NC(=O)[C@H](Cc1ccccc1)NC(=O)[C@@H](NC(=O)CNC(=O)[C@H](CCC(=O)O)NC(=O)C(C)(C)NC(=O)[C@@H](N)Cc1c[nH]cn1)[C@@H](C)O)[C@@H](C)O)C(C)C)C(=O)N[C@@H](C)C(=O)N[C@@H](Cc1c[nH]c2ccccc12)C(=O)N[C@@H](CC(C)C)C(=O)N[C@H](C(=O)N[C@@H](CCCNC(=N)N)C(=O)NCC(=O)N[C@@H](CCCNC(=N)N)C(=O)NCC(=O)O)C(C)C | Active | Active
2 | – | SEMAGLUTIDE | – | Active
